Assay results from US20260132132A1, “3A,4,5,6-TETRAHYDRO-1 H-PYRAZOLO[3,4-C]PYRIDIN-7(7AH)-ONE DERIVATIVES AS FACTOR XIIA INHIBITORS” (KALVISTA PHARMACEUTICALS LIMITED, priority 2022, published 2026).

Key:
[1] = target: T1, Human Factor XIIa (hFXIIa) (Homo sapiens, UniProt P00748); assay: Determination of Human Factor XIIa (hFXIIa) inhibition, fluorogenic substrate IC50 assay; type: biochemical; conditions: fluorogenic substrate H-DPro-Phe-Arg-AFC at Km, 25° C., read-out: Human FXIIa IC50
T1 construct: purchased Enzyme Research Laboratories
T1 sequence (P00748 373-615 limits assumed): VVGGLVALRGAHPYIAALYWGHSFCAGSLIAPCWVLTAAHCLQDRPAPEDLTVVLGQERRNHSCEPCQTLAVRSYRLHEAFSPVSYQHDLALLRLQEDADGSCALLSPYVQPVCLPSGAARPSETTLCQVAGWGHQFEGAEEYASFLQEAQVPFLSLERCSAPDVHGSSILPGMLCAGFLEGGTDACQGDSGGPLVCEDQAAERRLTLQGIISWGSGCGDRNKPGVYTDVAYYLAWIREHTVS
T1 sequence (P00748 20-372 partner limits assumed): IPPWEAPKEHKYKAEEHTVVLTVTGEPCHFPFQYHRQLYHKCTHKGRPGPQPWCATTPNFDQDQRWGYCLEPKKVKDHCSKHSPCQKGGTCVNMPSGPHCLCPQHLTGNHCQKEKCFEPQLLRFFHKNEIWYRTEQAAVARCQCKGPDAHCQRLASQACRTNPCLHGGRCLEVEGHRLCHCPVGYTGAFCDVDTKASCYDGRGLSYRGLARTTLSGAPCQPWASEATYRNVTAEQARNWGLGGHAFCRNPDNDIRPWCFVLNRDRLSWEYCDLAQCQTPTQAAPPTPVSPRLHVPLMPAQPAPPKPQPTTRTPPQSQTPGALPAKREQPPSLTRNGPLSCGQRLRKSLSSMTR
Experimental: Determination of Human Factor XIIa (hFXIIa) inhibition
The Km for the cleavage of the substrate by hFXIIa was determined by standard transformation of the Michaelis-Menten equation, with subsequent inhibition assays performed at substrate Km concentration.

FXa = FXa (Homo sapiens, UniProt P00742); assay: Related protease inhibition: FXa, fluorogenic substrate; type: biochemical; conditions: fluorogenic substrate at Km, 25° C.; H1-H3 = % activity at 40 μM
Experimental: Human serine protease enzyme Plasma Kallikrein, KLK1, FXa, Plasmin, Thrombin and Trypsin were assayed for enzymatic activity using an appropriate fluorogenic substrate at Km concentration, FXIa at fixed substrate concentration of 100 μM and various concentrations of the test compound.

Sequence of FXa (P00742 235-488 limits assumed): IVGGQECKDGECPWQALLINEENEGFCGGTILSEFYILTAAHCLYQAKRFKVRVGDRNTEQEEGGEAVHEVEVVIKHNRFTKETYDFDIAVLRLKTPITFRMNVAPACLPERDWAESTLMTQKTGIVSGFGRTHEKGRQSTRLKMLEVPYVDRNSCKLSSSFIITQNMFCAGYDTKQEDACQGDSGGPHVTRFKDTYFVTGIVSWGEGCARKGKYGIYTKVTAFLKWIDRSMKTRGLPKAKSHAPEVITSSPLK
Sequence of FXa (P00742 41-179 partner limits assumed): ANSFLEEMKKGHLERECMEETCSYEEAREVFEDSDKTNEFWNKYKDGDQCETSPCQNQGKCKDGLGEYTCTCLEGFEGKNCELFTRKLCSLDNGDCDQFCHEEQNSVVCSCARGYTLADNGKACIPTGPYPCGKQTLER

Structure (SMILES) | IC50 [1] [µM] | IC50 (FXa) [µM]
CCNC(=O)c1nn(-c2cccc(Cl)c2)c2c1CCN(c1cccc(N3CCCC3=O)c1)C2=O [Example 1365, 1-(3-chlorophenyl)-N-ethyl-7-oxo-6-(3-(2-oxopyrrolidin-1-yl)phenyl)-4,5,6,7-tetrahydro-1H-pyrazolo[3,4-c]pyridine-3-carboxamide] | 1 to 3 | > 40
CC(=O)NCc1nn(-c2cccc(Cl)c2)c2c1CCN(c1ccc3c(c1)C(=O)N(C)CC3)C2=O [Example 1385, N-((1-(3-chlorophenyl)-6-(2-methyl-1-oxo-1,2,3,4-tetrahydroisoquinolin-7-yl)-7-oxo-4,5,6,7-tetrahydro-1H-pyrazolo[3,4-c]pyridin-3-yl)methyl)acetamide] | 1 to 3 | 3 to 10
CCNC(=O)c1nn(-c2cc(C)ccn2)c2c1CCN(c1ccc3c(c1)C(=O)N(C)CC3)C2=O [Example 2035, N-ethyl-6-(2-methyl-1-oxo-1,2,3,4-tetrahydroisoquinolin-7-yl)-1-(4-methylpyridin-2-yl)-7-oxo-4,5,6,7-tetrahydro-1H-pyrazolo[3,4-c]pyridine-3-carboxamide] | 3 to 10 | 10 to 40
CCNC(=O)c1nn(-c2cc(Cl)ccc2C)c2c1CCN(c1ccc3c(c1)C(=O)N(C)CC3)C2=O [Example 2029, 1-(5-chloro-2-methylphenyl)-N-ethyl-6-(2-methyl-1-oxo-1,2,3,4-tetrahydroisoquinolin-7-yl)-7-oxo-4,5,6,7-tetrahydro-1H-pyrazolo[3,4-c]pyridine-3-carboxamide] | 10 to 40 | > 40
Cc1cccnc1CNC(=O)c1nn(-c2cccc(Cl)c2)c2c1CCN(c1ccc3c(c1)C(=O)N(C)CC3)C2=O [Example 1308, 1-(3-chlorophenyl)-6-(2-methyl-1-oxo-1,2,3,4-tetrahydroisoquinolin-7-yl)-N-((3-methylpyridin-2-yl)methyl)-7-oxo-4,5,6,7-tetrahydro-1H-pyrazolo[3,4-c]pyridine-3-carboxamide] | 0.3 to 1 | > 40
Cc1nc2c(CNC(=O)C3CC3)nn(-c3cccc(Cl)c3)c2c(=O)n1-c1ccc2c(c1)CN(CCO)CC2 [Example 3008, N-((1-(3-chlorophenyl)-6-(2-(2-hydroxyethyl)-1,2,3,4-tetrahydroisoquinolin-7-yl)-5-methyl-7-oxo-6,7-dihydro-1H-pyrazolo[4,3-d]pyrimidin-3-yl)methyl)cyclopropanecarboxamide] | 0.3 to 1 | 3 to 10
O=C(O)CN1CCc2ccc(N3CCc4c(C(=O)NCC5CC5)nn(-c5cccc(Cl)c5)c4C3=O)cc2C1=O [Example 1330, 2-(7-(1-(3-chlorophenyl)-3-((cyclopropylmethyl)carbamoyl)-7-oxo-1,4,5,7-tetrahydro-6H-pyrazolo[3,4-c]pyridin-6-yl)-1-oxo-3,4-dihydroisoquinolin-2(1H)-yl)acetic acid] | 1 to 3 | > 40

Continued, values first:

IC50 [1] [µM] | IC50 (FXa) [µM] | Structure (SMILES)
0.3 to 1 | > 4 | Cc1cc(CNC(=O)c2nn(-c3cccc(Cl)c3)c3c2CCN(c2ccc4c(c2)C(=O)N(CC(=O)O)CC4)C3=O)n[nH]1 [Example 1332, 2-(7-(1-(3-chlorophenyl)-3-(((5-methyl-1H-pyrazol-3-yl)methyl)carbamoyl)-7-oxo-1,4,5,7-tetrahydro-6H-pyrazolo[3,4-c]pyridin-6-yl)-1-oxo-3,4-dihydroisoquinolin-2(1H)-yl)acetic acid]
0.3 to 1 | > 4 | Cc1cc(CNC(=O)c2nn(-c3cccc(Cl)c3)c3c2CCN(c2ccc4c(c2)C(=O)N(CC(=O)O)CC4)C3=O)nn1C [Example 1331, 2-(7-(1-(3-chlorophenyl)-3-(((1,5-dimethyl-1H-pyrazol-3-yl)methyl)carbamoyl)-7-oxo-1,4,5,7-tetrahydro-6H-pyrazolo[3,4-c]pyridin-6-yl)-1-oxo-3,4-dihydroisoquinolin-2(1H)-yl)acetic acid]
0.1 to 0.3 | > 40 | Cc1nc2c(C(=O)NCC3CC3)nn(-c3cccc(Cl)c3)c2c(=O)n1-c1ccc2c(c1)CN(CCO)CC2 [Example 3003, 1-(3-chlorophenyl)-N-(cyclopropylmethyl)-6-(2-(2-hydroxyethyl)-1,2,3,4-tetrahydroisoquinolin-7-yl)-5-methyl-7-oxo-6,7-dihydro-1H-pyrazolo[4,3-d]pyrimidine-3-carboxamide]
0.3 to 1 | > 40 | Cc1nnc(CNC(=O)c2nn(-c3cccc(Cl)c3)c3c2CCN(c2ccc4c(c2)C(=O)N(C)CC4)C3=O)s1 [Example 1181, 1-(3-chlorophenyl)-N-((5-methyl-1,3,4-thiadiazol-2-yl)methyl)-6-(2-methyl-1-oxo-1,2,3,4-tetrahydroisoquinolin-7-yl)-7-oxo-4,5,6,7-tetrahydro-1H-pyrazolo[3,4-c]pyridine-3-carboxamide]
0.3 to 1 | 10 to 40 | Cc1cc(CNC(=O)c2nn(-c3cccc(Cl)c3)c3c2CCN(c2ccc4c(c2)C(=O)N(C)CC(=O)N4C)C3=O)nn1C [Example 1372, 1-(3-chlorophenyl)-N-((1,5-dimethyl-1H-pyrazol-3-yl)methyl)-6-(1,4-dimethyl-2,5-dioxo-2,3,4,5-tetrahydro-1H-benzo[e][1,4]diazepin-7-yl)-7-oxo-4,5,6,7-tetrahydro-1H-pyrazolo[3,4-c]pyridine-3-carboxamide]
0.3 to 1 | > 40 | C[C@H](CO)NC(=O)c1nn(-c2cccc(Cl)c2)c2c1CCN(c1ccc3c(c1)C(=O)N(C)CC3)C2=O [Example 1337, (R)-1-(3-chlorophenyl)-N-(1-hydroxypropan-2-yl)-6-(2-methyl-1-oxo-1,2,3,4-tetrahydroisoquinolin-7-yl)-7-oxo-4,5,6,7-tetrahydro-1H-pyrazolo[3,4-c]pyridine-3-carboxamide]
0.3 to 1 | 10 to 40 | C[C@@H](CO)NC(=O)c1nn(-c2cccc(Cl)c2)c2c1CCN(c1ccc3c(c1)C(=O)N(C)CC3)C2=O [Example 1344, (S)-1-(3-chlorophenyl)-N-(1-hydroxypropan-2-yl)-6-(2-methyl-1-oxo-1,2,3,4-tetrahydroisoquinolin-7-yl)-7-oxo-4,5,6,7-tetrahydro-1H-pyrazolo[3,4-c]pyridine-3-carboxamide]
0.1 to 0.3 | > 40 | O=C(NCC1CC1)c1nn(-c2cccc(Cl)c2)c2c1CCN(c1cc(F)c3c(c1)CN(CCO)CC3)C2=O [Example 1122, 1-(3-Chlorophenyl)-N-(cyclopropylmethyl)-6-(5-fluoro-2-(2-hydroxyethyl)-1,2,3,4-tetrahydroisoquinolin-7-yl)-7-oxo-4,5,6,7-tetrahydro-1H-pyrazolo[3,4-c]pyridine-3-carboxamide]
0.01 to 0.1 | 3 to 10 | CCN1CCOc2ccc(N3CCc4c(C(=O)NCc5cc(C)[nH]n5)nn(-c5cccc(Cl)c5)c4C3=O)cc2C1=O [Example 1352, 1-(3-chlorophenyl)-6-(4-ethyl-5-oxo-2,3,4,5-tetrahydrobenzo[f][1,4]oxazepin-7-yl)-N-((5-methyl-1H-pyrazol-3-yl)methyl)-7-oxo-4,5,6,7-tetrahydro-1H-pyrazolo[3,4-c]pyridine-3-carboxamide]
0.01 to 0.1 | 1 to 3 | Cc1cc(CNC(=O)c2nn(-c3cccc(Cl)c3)c3c2CCN(c2ccc4c(c2)C(=O)N(C)CCO4)C3=O)nn1C [Example 1319, 1-(3-chlorophenyl)-N-((1,5-dimethyl-1H-pyrazol-3-yl)methyl)-6-(4-methyl-5-oxo-2,3,4,5-tetrahydrobenzo[f][1,4]oxazepin-7-yl)-7-oxo-4,5,6,7-tetrahydro-1H-pyrazolo[3,4-c]pyridine-3-carboxamide]
